Data from patent US20230263786A1, “MODULATION OF DRUG-DRUG INTERACTIONS OF VADADUSTAT” (Akebia Therapeutics, Inc., priority 2020, published 2023).
Several values for one entry are separate records, joined by “and”; a condition that tells them apart may be missing. Equal values may be shown once. Read-outs that look alike come from different tables or passages of the source.

Columns and labels:
[1] = Phase 1 oral iron interaction study, Cohort 1 (after meal): sodium ferrous citrate, ferric citrate hydrate; assay type: in vivo, human; conditions: for AUC(0-inf) / AUC(0-t) / Cmax / half-life: male, human, plasma, oral; for AUC(0-inf): read-out: AUC(0-inf), LS geometric mean; for AUC(0-t): read-out: AUC(0-last), LS geometric mean; for Cmax: read-out: Cmax, LS geometric mean; for half-life: read-out: t1/2, LS geometric mean (converted)
Text: The study included 3 periods as follow: • Screening: performed within 4 weeks before the day of administration of the study drug. • Evaluation period: Cohort 1 was confined to the study site for 10-night, 11-day. Cohort 2 and Cohort 3 were confined to the study site for 7 nights and 8 days. • Post-administration tests: performed 3 days after administration of the last dose of the study drug.
In Cohort 1, 21 subjects were further randomized into 3 groups (7 subjects per group) and the evaluation period was divided into 3 periods during the study:
(§1) Administration of vadadustat tablets alone: after fasting for at least 10 hours, subjects would eat breakfast over a period of 10 minutes, then immediately after finishing the meal (5 minutes after finishing the meal), 1 vadadustat tablet (150 mg) would be taken orally with 200 mL of water (extra water may be drunk if more is needed when taking the tablet, and the extra volume would be recorded). After breakfast, subjects would fast until the end of the collection of blood samples at 4 hours after administration of the study drug. Subjects would eat lunch over a period of 20 minutes after blood samples were collected at 4 hours after administration of the study drug. After lunch, subjects would fast until dinner, when they would eat dinner over a period of 20 minutes at 10 hours after administration of the study drug. Subjects would fast from dinner until breakfast the next morning.
as §1, with “and sodium ferrous citrate:” for “alone:”, “mg) and 4 tablets of sodium ferrous citrate (containing 200 mg of iron)” for “mg)”, “tablets,” for “tablet,”
Administration of vadadustat tablets and ferric citrate hydrate: after fasting for at least 10 hours, subjects would eat breakfast over a period of 10 minutes, then immediately after finishing the meal (5 minutes after finishing the meal), 1 vadadustat tablet (150 mg) and 8 tablets of ferric citrate hydrate (containing 2000 mg of ferric citrate) would be taken orally with 200 mL of water (extra water may be drunk if more is needed when taking the tablets, and the extra volume will be recorded). After breakfast, subjects would fast until the end of the collection of blood samples at 4 hours after administration of the study drug. After collection of blood samples at 4 hours after administration of the study drug, subjects would eat lunch over a period of 20 minutes, then immediately after finishing the meal, 8 tablets of ferric citrate hydrate (containing 2000 mg of ferric citrate) would be taken orally with 200 mL of water (extra water may be drunk if more is needed when taking the tablet, and the extra volume would be recorded). Subjects would fast from lunch to before dinner, and at 10 hours after administration of the study drug, subjects will eat dinner over a period of 20 minutes, then immediately after finishing the meal, 8 tablets of ferric citrate hydrate (containing 2000 mg of ferric citrate) would be taken orally with 200 mL of water (extra water may be drunk if more is needed when taking the tablets, and the extra volume would be recorded). Subjects would fast from dinner until breakfast the next morning.

[2] = Phase I single-dose study, moderate hepatic impairment versus normal hepatic function; assay type: in vivo, human; conditions: for AUC(0-inf) / AUC(0-t) / Cmax / Vd/F / half-life / Tmax / CL renal: both sexes, human, oral, 450 mg; for AUC(0-inf) / AUC(0-t) / Cmax / Vd/F / half-life / Tmax: plasma; for half-life: read-out: Elimination Half-life (t1/2) (converted); for Tmax: median; for CL renal: urine, read-out: CLr, renal clearance (converted)
Procedure: A phase I, open-label, parallel-group, single-dose study was conducted to evaluate the pharmacokinetics (PK) of 450 mg vadadustat administered in adults with moderate hepatic impairment (Child-Pugh Class B) versus those with normal hepatic function. The pharmacokinetic (pK) parameters of Compound 1 were characterized. Safety and tolerability were assessed throughout the study.
Inclusion criteria: participants were male and female adults between 18 and 70 years of age, with either normal hepatic function or moderate hepatic impairment based on the Child-Pugh classification (Child-Pugh Class B [score 7-9]). Moderate hepatic impairment was defined by the presence and severity of elevated bilirubin levels, decreased serum albumin levels, elevated international normalized ratios >2.20, ascites, and hepatic encephalopathy.
Pharmacokinetics. […] PK parameters Ae0-72, Fe %0-72, and CL, were estimated from the urine concentration-time profiles.
8 subjects with hepatic impairment and 8 matched subjects with normal hepatic function were enrolled in the study. All subjects received a single oral 450-mg dose of vadadustat on Day 1 and were required to fast for at least 10 hours before dosing and for 4 hours after dosing.

[3] = 150 mg with ferric citrate hydrate (2000 mg ferric citrate)
[4] = 150 mg with sodium ferrous citrate (200 mg iron)
[5] = 150 mg, Compound 1 150 mg alone
[6] = single 450 mg, Moderate Hepatic Impairment, mean ± SD
[7] = single 450 mg, Moderate Hepatic Impairment
[8] = single 450 mg, Normal Liver Function, mean ± SD
[9] = single 450 mg, Normal Liver Function

## O=C(O)CNC(=O)c1ncc(-c2cccc(Cl)c2)cc1O [Compound 1, {[5-(3-chlorophenyl)-3-hydroxypyridine-2-carbonyl]amino}acetic acid]
[1]; [3]
  Kel, LS geometric mean: 0.16 h⁻¹
  AUC(0-inf): 32.4 µg·h/mL
  AUC(0-t): 31.1 µg·h/mL
  Cmax: 5180 ng/mL
  half-life: 4.26 h
[1]; [4]
  Kel, LS geometric mean: 0.13 h⁻¹
  AUC(0-inf): 46.6 µg·h/mL
  AUC(0-t): 44.4 µg·h/mL
  Cmax: 6960 ng/mL
  half-life: 5.34 h
[1]; Compound 1 150 mg alone
  Kel, LS geometric mean: 0.13 h⁻¹
[1]; [5]
  AUC(0-inf): 104 µg·h/mL
  AUC(0-t): 99.2 µg·h/mL
  Cmax: 14300 ng/mL
  half-life: 5.32 h
[2]; AUC0-inf, Geometric LSM, Total Compound 1, single 450 mg, Moderate Hepatic Impairment
  AUC(0-inf): 414 µg·h/mL
[2]; AUC0-inf, Geometric LSM, Total Compound 1, single 450 mg, Normal Liver Function
  AUC(0-inf): 394 µg·h/mL
[2]; AUC0-last, Geometric LSM, Total Compound 1, single 450 mg, Moderate Hepatic Impairment
  AUC(0-t): 410 µg·h/mL
[2]; AUC0-last, Geometric LSM, Total Compound 1, single 450 mg, Normal Liver Function
  AUC(0-t): 389 µg·h/mL
[2]; Cmax, Geometric LSM, Total Compound 1, single 450 mg, Moderate Hepatic Impairment
  Cmax: 52000 ng/mL
[2]; Cmax, Geometric LSM, Total Compound 1, single 450 mg, Normal Liver Function
  Cmax: 50000 ng/mL
[2]; Volume of distribution (Vd/F), Unbound Compound 1, single 450 mg, Moderate Hepatic Impairment, mean ± SD
  Vd/F: 1490 ± 542 L
[2]; Volume of distribution (Vd/F), Unbound Compound 1, single 450 mg, Normal Liver Function, mean ± SD
  Vd/F: 1330 ± 222 L
[2]; single 450 mg, Moderate Hepatic Impairment, mean ± SD, read-out: AUC0-inf, plasma, total
  AUC(0-inf): 436 ± 156 µg·h/mL
[2]; single 450 mg, Moderate Hepatic Impairment, mean ± SD, read-out: AUC0-last, plasma, total
  AUC(0-t): 432 ± 153 µg·h/mL
[2]; single 450 mg, Moderate Hepatic Impairment, mean ± SD, read-out: Cmax, plasma, total
  Cmax: 53000 ± 12000 ng/mL
[2]; [6]
  half-life: 7.8 h
  AUC0-inf, Unbound Compound 1: 3.78 ± 1.738 µg·h/mL
  AUC0-last, Unbound Compound 1: 3.75 ± 1.709 µg·h/mL
  Clearance (CL/F), Unbound Compound 1: 140 ± 56.02 L/h
  Clearance (CL/F), total: 1.2 ± 0.4 L/h
  Cmax, Unbound Compound 1: 451 ± 133.2 ng/mL
  Elimination Half-life (t1/2): 7.75 ± 2.5 h
[2]; single 450 mg, Moderate Hepatic Impairment, mean ± SD, read-out: Volume of distribution (Vd/F), total
  Vd/F: 12.3 ± 4 L
[2]; [7]
  Tmax: 2 h
  CL renal: 0.105 mL/min
  AUC0-inf, Geometric LSM, Unbound Compound 1: 3.47 µg·h/mL
  AUC0-last, Geometric LSM, Unbound Compound 1: 3.44 µg·h/mL
  Ae0-72, cumulative amount excreted in urine up to 72 hours: 2.45 ± 1.611 mg
  Cmax, Geometric LSM, Unbound Compound 1: 433 ng/mL
  Fe%0-72, cumulative fraction excreted in urine: 0.545% and 0.545 ± 0.3580%
[2]; single 450 mg, Normal Liver Function, mean ± SD, read-out: AUC0-inf, plasma, total
  AUC(0-inf): 397 ± 72 µg·h/mL
[2]; single 450 mg, Normal Liver Function, mean ± SD, read-out: AUC0-last, plasma, total
  AUC(0-t): 395 ± 72 µg·h/mL
[2]; single 450 mg, Normal Liver Function, mean ± SD, read-out: Cmax, plasma, total
  Cmax: 53000 ± 15000 ng/mL
[2]; [8]
  half-life: 5.8 h
  AUC0-inf, Unbound Compound 1: 2.91 ± 0.9049 µg·h/mL
  AUC0-last, Unbound Compound 1: 2.90 ± 0.9001 µg·h/mL
  Clearance (CL/F), Unbound Compound 1: 167 ± 49.10 L/h
  Clearance (CL/F), total: 1.2 ± 0.3 L/h
  Cmax, Unbound Compound 1: 378 ± 113.1 ng/mL
  Elimination Half-life (t1/2): 5.81 ± 1.4 h
[2]; single 450 mg, Normal Liver Function, mean ± SD, read-out: Volume of distribution (Vd/F), total
  Vd/F: 9.6 ± 1.9 L
[2]; [9]
  Tmax: 2.5 h
  CL renal: 0.122 mL/min
  AUC0-inf, Geometric LSM, Unbound Compound 1: 2.79 µg·h/mL
  AUC0-last, Geometric LSM, Unbound Compound 1: 2.78 µg·h/mL
  Ae0-72, cumulative amount excreted in urine up to 72 hours: 2.76 ± 1.214 mg
  Cmax, Geometric LSM, Unbound Compound 1: 360 ng/mL
  Fe%0-72, cumulative fraction excreted in urine: 0.614% and 0.614 ± 0.2698%
[2]; single 450 mg
  impact of moderate hepatic impairment on total systemic exposure: no significant impact on total systemic exposure
[2]; single 450 mg, both groups
  serious AEs: No serious AEs
[2]; single 450 mg, both moderate hepatic impairment and normal hepatic function
  dose excreted in the urine as Compound 1: < 1%
